Laboratory results published in US20050004163A1, “3-(diarylmethylene)-8-azabicyclo[3.2.1]octane derivatives” (priority 2000, published 2005).

Target: T1, μ-opioid receptor (Rattus norvegicus, UniProt P33535)
T1 construct: the forebrains are homogenized in Tris buffer in a Teflon®-glass homogenizer; from tissue; host or cells: forebrain of male Wistar rats (particulate membrane preparation)
Experiment: Rat brain μ-opioid receptor binding assay ([3H]DAMGO)
Conditions: 10 nM solutions of the compounds, read-out: MOR binding Ki
Description: Rat Brain μ-Opioid Receptor Binding Assay
Male, Wistar rats (150-250 g, VAF, Charles River, Kingston, N.Y.) are killed by cervical dislocation and their brains removed and placed immediately in ice cold Tris HCl buffer (50 mM, pH 7.4). The forebrains are separated from the remainder of the brain by a coronal transection, beginning dorsally at the colliculi and passing ventrally through the midbrain-pontine junction. After dissection, the forebrains are homogenized in Tris buffer in a Teflon®-glass homogenizer. The homogenate is diluted to a concentration of 1 g of forebrain tissue per 100 mL Tris buffer and centrifuged at 39,000×G for 10 min. The pellet is resuspended in the same volume of Tris buffer with several brief pulses from a Polytron homogenizer. This particulate preparation is used for the μ-opioid binding assays. […] The tubes and filters are rinsed three times with 4 mL of 10 mM HEPES (pH 7.4) and the radioactivity associated with the filter circles determined using Formula 989 scintillation fluid (New England Nuclear, Boston, Mass.) in a scintillation counter.
The data are used to calculate either the % inhibition compared to control binding (when only a single concentration of test compound is evaluated) or a Ki value (when a range of concentrations is tested).
% Inhibition is calculated as follows: [formula]
Ki value is calculated using the LIGAND (Munson, P. J. and Rodbard, D., Anal. Biochem. 107: 220-239, 1980) data analysis program.

T1 sequence (P33535 whole entry): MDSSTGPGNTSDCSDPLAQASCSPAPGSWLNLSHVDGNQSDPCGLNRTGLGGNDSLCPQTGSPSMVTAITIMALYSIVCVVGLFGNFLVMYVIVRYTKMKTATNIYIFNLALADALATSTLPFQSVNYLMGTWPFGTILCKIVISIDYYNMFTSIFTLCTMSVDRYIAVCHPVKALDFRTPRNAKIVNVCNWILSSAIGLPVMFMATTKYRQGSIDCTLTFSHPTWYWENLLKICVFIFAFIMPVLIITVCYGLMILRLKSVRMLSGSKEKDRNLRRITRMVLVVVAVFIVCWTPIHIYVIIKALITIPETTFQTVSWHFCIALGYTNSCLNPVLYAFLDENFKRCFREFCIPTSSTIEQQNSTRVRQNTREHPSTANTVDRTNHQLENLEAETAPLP

Row | SMILES | Ki [nM]
1 | CCNC(=O)c1ccc(C(=C2CC3CCC(C2)N3Cc2ccc3ccccc3n2)c2ccccn2)cc1 [Cpd 13] | 123
2 | CCCCN1C2CCC1CC(=Cc1ccc(C(=O)NCC)cc1)C2 [Cpd 53] | 262
3 | CCNC(=O)c1ccc(C=C2CC3CCC(C2)N3Cc2cccs2)cc1 [Cpd 61] | 71.2
4 | CCNC(=O)c1ccc(C=C2CC3CCC(C2)N3CCc2ccccc2O)cc1 [Cpd 86] | 19.3
5 | CCNC(=O)c1ccc(C(=C2CC3CCC(C2)N3C(=O)OCC)c2cc(C)c(O)c(C)c2)cc1 [Cpd 173, 3-[(4-Ethylcarbamoyl-phenyl)-(4-hydroxy-3,5-dimethyl-phenyl)-methylene]-8-aza-bicyclo[3.2.1]octane-8-carboxylic acid ethyl ester] | 2070
6 | CCNC(=O)c1ccc(C(=C2CC3CCC(C2)N3C(=O)OCC)c2ccc(O)c(OC)c2)cc1 [Cpd 172, 3-[(4-Ethylcarbamoyl-phenyl)-(4-hydroxy-3-methoxy-phenyl)-methylene]-8-aza-bicyclo[3.2.1]octane-8-carboxylic acid ethyl ester] | 713
7 | CCNC(=O)c1ccc(C(=C2CC3CCC(C2)N3Cc2ccc(C(=O)O)o2)c2cccc(C(=O)O)c2)cc1 [Cpd 87] | 815
8 | CCNC(=O)c1ccc(C(=C2CC3CCC(C2)N3Cc2ccco2)c2nnn[nH]2)cc1 [Cpd 204] | 25300
9 | CCNC(=O)c1ccc(C(=C2CC3CCC(C2)N3CCc2ccccc2)c2ccc(CCC(=O)O)cc2)cc1 [Cpd 135] | 318
10 | CCNC(=O)c1ccc(C(Br)=C2CC3CCC(C2)N3Cc2ccco2)cc1 [Cpd 24] | 21.7
11 | CCNC(=O)c1ccc(C(=C2CC3CCC(C2)N3Cc2ccoc2)c2ccc3c(c2)OCO3)cc1 [Cpd 10] | 1.06
12 | CCNC(=O)c1ccc(C(=C2CC3CCC(C2)N3Cc2ccco2)c2cnc3ccccc3c2)cc1 [Cpd 16] | 82

Same assay, conditions: MOR binding Ki

Row | SMILES | Ki [nM]
13 | CCNC(=O)c1ccc(C(=C2CC3CCC(C2)N3Cc2ccc3c(c2)OCO3)c2cccc3cccnc23)cc1 [Cpd 69] | 133
14 | CCNC(=O)c1ccc(C(=C2CC3CCC(C2)N3CCc2ccccc2)c2ccc([N+](=O)[O-])cc2)cc1 [Cpd 134] | 7.57
15 | CCNC(=O)c1ccc(C(=C2CC3CCC(C2)N3Cc2ccsc2)c2ccc(C(=O)O)cc2)cc1 [Cpd 176] | 10.7
16 | CCNC(=O)c1ccc(C(=C2CC3CCC(C2)N3Cc2ccoc2)c2ccc(S(N)(=O)=O)cc2)cc1 [Cpd 138] | 49.5
17 | CCNC(=O)c1ccc(C(=C2C[C@H]3CC[C@@H](C2)N3C(=O)Cc2ccccc2)c2cccnc2)cc1 [Cpd 218, N-Ethyl-4-[((1S,5R)-8-phenylacetyl-8-aza-bicyclo[3.2.1]oct-3-ylidene)-pyridin-3-yl-methyl]-benzamide] | 3.54
18 | CCNC(=O)c1ccc(C(=C2CC3CCC(C2)N3Cc2ccc3ccccc3n2)c2cccc(NC(C)=O)c2)cc1 [Cpd 72] | 11.1
19 | CCNC(=O)c1ccc(C=C2CC3CCC(C2)N3Cc2ccco2)cc1 [Cpd 34] | 1420
20 | CCNC(=O)c1ccc(C(=C2CC3CCC(C2)N3Cc2ccco2)c2ccc(CO)cc2)cc1 [Cpd 192] | 18.6
21 | CCNC(=O)c1ccc(C=C2CC3CCC(C2)N3CCC(C#N)(c2ccccc2)c2ccccc2)cc1 [Cpd 106, 4-[8-(3-Cyano-3,3-diphenylpropyl)-8-aza-bicyclo[3.2.1]oct-3-ylidenemethyl]-N-ethyl-benzamide] | 53.6
22 | CCNC(=O)c1ccc(C(=C2CC3CCC(C2)N3Cc2ccccn2)c2cccc3cccnc23)cc1 [Cpd 70] | 41.1
23 | CCNC(=O)c1ccc(C=C2CC3CCC(C2)N3Cc2ccsc2)cc1 [Cpd 33] | 198
24 | CCNC(=O)c1ccc(C(=C2CC3CCC(C2)N3Cc2ccco2)c2cccc(CO)c2)cc1 [Cpd 179] | 8.43
25 | CCNC(=O)c1ccc(C(=C2CC3CCC(C2)N3Cc2ccsc2)c2ccc(CO)cc2)cc1 [Cpd 205] | 17.2
26 | CCN(CC)C(=O)c1ccc(C(=C2CC3CCC(C2)N3C#N)c2ccccc2)cc1 [Cpd 197, 4-[(8-cyano-8-aza-bicyclo[3.2.1]oct-3-ylidene)-phenyl-methyl]-N,N-diethylbenzamide] | 10000
27 | CCNC(=O)c1ccc(C(=C2CC3CCC(C2)N3CCc2ccccc2)c2cccc(-c3nnn[nH]3)c2)cc1 [Cpd 166] | 50.3
28 | CCNC(=O)c1ccc(C(=C2CC3CCC(C2)N3Cc2ccc3ccccc3n2)c2ccc3c(c2)OCO3)cc1 [Cpd 9] | 34.1
29 | CCNC(=O)c1ccc(C(=C2CC3CCC(C2)N3Cc2ccccn2)c2cccc(CO)c2)cc1 [Cpd 181] | 6.04
30 | CCNC(=O)c1ccc(C(=C2CC3CCC(C2)N3Cc2nccs2)c2nnn[nH]2)cc1 [Cpd 150] | 73.8
31 | CCNC(=O)c1ccc(C(=C2CC3CCC(C2)N3Cc2ccco2)c2cccc(C(=O)O)c2)cc1 [Cpd 80, 3-[(4-Ethylcarbamoyl-phenyl)-(8-furan-2-ylmethyl-8-aza-bicyclo[3.2.1]oct-3-ylidene)-methyl]-benzoic acid] | 119
32 | CCNC(=O)c1ccc(C(=C2CC3CCC(C2)N3Cc2cccs2)c2cccc3cccnc23)cc1 [Cpd 68] | 155
33 | CCNC(=O)c1ccc(C(=C2CC3CCC(C2)N3Cc2ccccn2)c2cnc3ccccc3c2)cc1 [Cpd 66] | 142
34 | CCNC(=O)c1ccc(C(=C2CC3CCC(C2)N3CCc2ccccc2)c2nnn[nH]2)cc1 [Cpd 149] | 63.7
35 | CCNC(=O)c1ccc(C(=C2CC3CCC(C2)N3C(=O)Cc2ccccc2)c2cccnc2)cc1 [Cpd 200, N-Ethyl-4-[(8-phenylacetyl-8-aza-bicyclo[3.2.1]oct-3-ylidene)-pyridin-3-yl-methyl]-benzamide] | 13.3
36 | CCNC(=O)c1ccc(C(C#N)=C2CC3CCC(C2)N3Cc2ccoc2)cc1 [Cpd 143] | 1.03
37 | CCNC(=O)c1ccc(C(=C2CC3CCC(C2)N3Cc2csc([N+](=O)[O-])c2)c2cccc(C(C)=O)c2)cc1 [Cpd 76] | 184

Row | SMILES | Ki [nM]
38 | CCNC(=O)c1ccc(C(=C2CC3CCC(C2)N3CCc2ccccc2)c2cccc(CN)c2)cc1 [Cpd 158] | 12
39 | CCNC(=O)c1ccc(C(=C2CC3CCC(C2)N3Cc2ccoc2)c2nnn[nH]2)cc1 [Cpd 144] | 212
40 | CCNC(=O)c1ccc(C(Br)=C2CC3CCC(C2)N3Cc2ccoc2)cc1 (single isomer, unassigned) [Cpd 212] | 38.5
41 | CCNC(=O)c1ccc(C(=C2CC3CCC(C2)N3Cc2ccccn2)c2cccc(-c3nnn[nH]3)c2)cc1 [Cpd 165] | 54.1
42 | CCNC(=O)c1ccc(C(=C2CC3CCC(C2)N3Cc2[nH]cnc2C)c2ccc3c(c2)OCO3)cc1 [Cpd 11] | 46.2
43 | CCNC(=O)c1ccc(C(=C2CC3CCC(C2)N3Cc2ccsc2)c2ccc(C(N)=O)cc2)cc1 [Cpd 191] | 22.1
44 | CCNC(=O)c1ccc(C(=C2CC3CCC(C2)N3Cc2ccoc2)c2ccc(C(=O)O)cc2)cc1 [Cpd 97] | 11.9
45 | CCNC(=O)c1ccc(C=C2C[C@H]3CC[C@@H](C2)N3CCc2ccccc2)cc1 (single isomer, unassigned) [Cpd 42, (−)—N-Ethyl-4-(8-phenethyl-8-aza-bicyclo[3.2.1]oct-3-ylidenemethyl)-benzamide] | 5.99
46 | CCNC(=O)c1ccc(C(=C2CC3CCC(C2)N3Cc2nccs2)c2cc(C(=O)O)cc([N+](=O)[O-])c2)cc1 [Cpd 159] | 13.5
47 | CCNC(=O)c1ccc(C(=C2CC3CCC(C2)N3CC=C(C)C)c2ccc(CCC(=O)O)cc2)cc1 [Cpd 137] | 9.74
48 | CCNC(=O)c1ccc(C(=C2CC3CCC(C2)N3CCc2ccccc2)c2cccc(C(=O)O)c2)cc1 [Cpd 83] | 17.2
49 | CCNC(=O)c1ccc(C(Br)=C2CC3CCC(C2)N3Cc2cccs2)cc1 [Cpd 40] | 8.97
50 | CCNC(=O)c1ccc(C(=C2CC3CCC(C2)N3Cc2sccc2C)c2cnc3ccccc3c2)cc1 [Cpd 18] | 561
51 | CCN(CC)C(=O)c1ccc(C(Br)=C2CC3CCC(C2)N3CCc2ccccc2)cc1 [Cpd 89, 4-[Bromo-(8-phenethyl-8-azabicyclo[3.2.1]oct-3-ylidene)-methyl]-N,N-diethylbenzamide] | 1010
52 | CCNC(=O)c1ccc(C(=C2CC3CCC(C2)N3Cc2ccccn2)c2ccc(C(=O)O)cc2)cc1 [Cpd 98] | 203
53 | CCNC(=O)c1ccc(C(=C2C[C@H]3CC[C@@H](C2)N3C(=O)Cc2ccccc2)c2cccnc2)cc1 (single isomer, unassigned) [Cpd 217] | 3.07
54 | CCNC(=O)c1ccc(C(=C2CC3CCC(C2)N3)c2nnn[nH]2)cc1 [Cpd 151] | 1.76
55 | CCNC(=O)c1ccc(C(=C2CC3CCC(C2)N3Cc2nccs2)c2cccc(CN)c2)cc1 [Cpd 160] | 7230
56 | CCNC(=O)c1ccc(C=C2CC3CCC(C2)N3CC#Cc2ccccc2)cc1 [Cpd 59] | 31.6
57 | CCNC(=O)c1ccc(C(=C2CC3CCC(C2)N3Cc2ccsc2)c2ccc(S(N)(=O)=O)cc2)cc1 [Cpd 139] | 1.54
58 | CCNC(=O)c1ccc(C(Br)=C2CC3CCC(C2)N3Cc2ccoc2)cc1 [Cpd 26] | 1.86
59 | CCNC(=O)c1ccc(C(=C2CC3CCC(C2)N3CC=C(C)C)c2cccc(C(=O)O)c2)cc1 [Cpd 47, 3{(4-Ethylcarbamoyl-phenyl)-[8-(3-methyl-but-2-enyl)-8-aza-bicyclo[3.2.1]oct-3-ylidene]-methyl}-benzoic acid] | 125
60 | CCNC(=O)c1ccc(C=C2CC3CCC(C2)N3Cc2ccccn2)cc1 [Cpd 56] | 1500
61 | CCNC(=O)c1ccc(C=C2CC3CCC(C2)N3Cc2[nH]cnc2C)cc1 [Cpd 37] | 1470
